According to patent publication US20240116892A1, “HETEROCYCLIC AMIDE AND UREA COMPOUNDS AS JAK2 INHIBITORS” (Ajax Therapeutics, Inc., priority 2022, published 2024):

target: JAK2 (JH1 domain-catalytic, Y1007F, Y1008F) kinase (Homo sapiens (Human), UniProt O60674, Y1007F/Y1008F); assay: JAK2 JH1 Domain Binding Assay; conditions: qPCR readout
Summary of the method: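 Competitive binding format: test compound, DNA-tagged JAK2 JH1 (Y1007F/Y1008F; HEK293-expressed NFkB fusion) and ligand-coated magnetic beads incubated 1 h at room temperature. Kinase retained on beads released with 0.5 μmol/L non-biotinylated ligand, then measured by qPCR.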

Chain of JAK2 (JH1 domain-catalytic, Y1007F, Y1008F) kinase (O60674 849-1124 Y1007F/Y1008F): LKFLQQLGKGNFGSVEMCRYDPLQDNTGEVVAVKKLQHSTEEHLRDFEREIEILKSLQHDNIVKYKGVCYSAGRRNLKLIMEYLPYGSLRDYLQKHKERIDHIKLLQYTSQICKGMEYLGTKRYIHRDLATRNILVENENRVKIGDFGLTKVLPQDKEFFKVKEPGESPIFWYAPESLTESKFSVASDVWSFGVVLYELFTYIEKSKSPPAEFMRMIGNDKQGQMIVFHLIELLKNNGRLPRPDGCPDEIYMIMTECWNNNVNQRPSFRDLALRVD

Kd | Compound
< 10 nM | CC(=O)Nc1ccc(N2CCC(N(C)C(=O)Nc3cc(C)cc(C(F)(F)F)c3)CC2)cn1 [Example I-12, N-(5-(4-(1-methyl-3-(3-methyl-5-(trifluoromethyl)phenyl)ureido)piperidin-1-yl)pyridin-2-yl)acetamide]
< 10 nM | CN(C(=O)Nc1cc(C(F)(F)F)cn(C)c1=O)C1CCN(c2cnc3[nH]ccc3c2)CC1 [Example I-21, 1-(1-(1H-pyrrolo[2,3-b]pyridin-5-yl)piperidin-4-yl)-1-methyl-3-(1-methyl-2-oxo-5-(trifluoromethyl)-1,2-dihydropyridin-3-yl)urea]
< 10 nM | CC(=O)Nc1cnc(N2CC[C@H](N(C)C(=O)Nc3cc(C(F)(F)F)cn(C)c3=O)C(F)(F)C2)cn1 (single isomer, unassigned) [Example I-35-b]
< 10 nM | CN(C(=O)Nc1cc(C(F)(F)F)cn(C)c1=O)C1CCN(c2cnc3[nH]cc(N4CCOCC4)c3n2)CC1 [Example I-124, 1-methyl-3-(1-methyl-2-oxo-5-(trifluoromethyl)-1,2-dihydropyridin-3-yl)-1-(1-(7-morpholino-5H-pyrrolo[2,3-b]pyrazin-2-yl)piperidin-4-yl)urea]
< 10 nM | Cc1cc(C(F)(F)F)cc(NC(=O)N(C)[C@H]2CCN(c3cnc4[nH]ncc4c3)C[C@@H]2F)n1 [Example I-178, 1-((35,4S)-3-fluoro-1-(1H-pyrazolo[3,4-b]pyridin-5-yl)piperidin-4-yl)-1-methyl-3-(6-methyl-4-(trifluoromethyl)pyridin-2-yl)urea]
< 10 nM | CN(C(=O)Nc1cc(C(F)(F)F)cn(C)c1=O)C1CCN(c2cnc3[nH]c(=O)[nH]c3c2)CC1 [Example I-76, 1-methyl-3-(1-methyl-2-oxo-5-(trifluoromethyl)-1,2-dihydropyridin-3-yl)-1-(1-(2-oxo-2,3-dihydro-1H-imidazo[4,5-b]pyridin-6-yl)piperidin-4-yl)urea]
< 10 nM | COc1n[nH]c2ncc(N3CC[C@@H](N(C)C(=O)Nc4cc(C(F)(F)F)cn(C)c4=O)[C@@H](OC)C3)cc12 [Example I-106-a, 1-((3S,4R)-3-methoxy-1-(3-methoxy-1H-pyrazolo[3,4-b]pyridin-5-yl)piperidin-4-yl)-1-methyl-3-(1-methyl-2-oxo-5-(trifluoromethyl)-1,2-dihydropyridin-3-yl)urea]
50 to 1000 nM | COCc1cc2nc(N3CC[C@H](N(C)C(=O)Nc4cc(C(F)(F)F)cn(C)c4=O)[C@@H](OC)C3)cnc2[nH]1 [Example I-113-a, 1-((3S,4S)-3-methoxy-1-(6-(methoxymethyl)-5H-pyrrolo[2,3-b]pyrazin-2-yl)piperidin-4-yl)-1-methyl-3-(1-methyl-2-oxo-5-(trifluoromethyl)-1,2-dihydropyridin-3-yl)urea]
< 10 nM | COc1n[nH]c2ncc(N3CC[C@@H](N(C)C(=O)Nc4cc(C(F)(F)F)cn(C)c4=O)[C@@H](F)C3)cc12 [Example I-87-a, 1-((3S,4R)-3-fluoro-1-(3-methoxy-1H-pyrazolo[3,4-b]pyridin-5-yl)piperidin-4-yl)-1-methyl-3-(1-methyl-2-oxo-5-(trifluoromethyl)-1,2-dihydropyridin-3-yl)urea]
< 10 nM | CN(C(=O)Nc1cc(C(F)(F)F)ccn1)[C@@H]1CCN(c2cnc3[nH]ncc3c2)C[C@H]1F [Example I-175, 1-((3R,4R)-3-fluoro-1-(1H-pyrazolo[3,4-b]pyridin-5-yl)piperidin-4-yl)-1-methyl-3-(4-(trifluoromethyl)pyridin-2-yl)urea]
< 10 nM | CN(C(=O)Nc1cc(C(F)(F)F)cn(C)c1=O)C1CCN(c2cnc(NC(=O)C3CC3)cn2)CC1 [Example I-18, N-(5-(4-(1-methyl-3-(1-methyl-2-oxo-5-(trifluoromethyl)-1,2-dihydropyridin-3-yl)ureido)piperidin-1-yl)pyrazin-2-yl)cyclopropanecarboxamide]
< 10 nM | CN(C(=O)Nc1cc(C(F)(F)F)ccn1)[C@@H]1CCN(c2cnc3[nH]ncc3c2)CC1(F)F (mixture of isomers) [Example I-146-a, (R)-1-(3,3-difluoro-1-(1H-pyrazolo[3,4-b]pyridin-5-yl)piperidin-4-yl)-1-methyl-3-(4-(trifluoromethyl)pyridin-2-yl)urea and (S)-1-(3,3-difluoro-1-(1H-pyrazolo[3,4-b]pyridin-5-yl)piperidin-4-yl)-1-methyl-3-(4-(trifluoromethyl)pyridin-2-yl)urea]
< 10 nM | CN(C(=O)Nc1cc(C(F)(F)F)cn(C)c1=O)[C@@H]1CCN(c2cnc3[nH]ncc3c2)CC1(F)F [Example I-29-a, (R)-1-(3,3-difluoro-1-(1H-pyrazolo[3,4-b]pyridin-5-yl)piperidin-4-yl)-1-methyl-3-(1-methyl-2-oxo-5-(trifluoromethyl)-1,2-dihydropyridin-3-yl)urea]
10 to 50 nM | Cn1cc(C(F)(F)F)cc(NC(=O)N2CC=CC23CCN(c2cnc4[nH]ncc4c2)CC3)c1=O [Example I-81, N-(1-methyl-2-oxo-5-(trifluoromethyl)-1,2-dihydropyridin-3-yl)-8-(1H-pyrazolo[3,4-b]pyridin-5-yl)-1,8-diazaspiro[4.5]dec-3-ene-1-carboxamide]
< 10 nM | CN(C(=O)Nc1cc(C(F)(F)F)cn(C)c1=O)[C@@H]1CC=C(c2cnc3[nH]ncc3n2)CC1 (single isomer, unassigned) [Example I-160-a, (S)- or (R)-1-(4-(1H-pyrazolo[3,4-b]pyrain-5-yl)cyclohex-3-en-1-yl)-1-methyl-3-(2-methyl-2-oxo-5-(trifluoromethyl)-1,2-dihydropyridin-3-yl)urea]
10 to 50 nM | CN(C)C(=O)Nc1cnc(N2CCC(N(C)C(=O)Nc3cc(C(F)(F)F)cn(C)c3=O)CC2)cn1 [Example I-48, 1,1-dimethyl-3-(5-(4-(1-methyl-3-(1-methyl-2-oxo-5-(trifluoromethyl)-1,2-dihydropyridin-3-yl)ureido)piperidin-1-yl)pyrazin-2-yl)urea]
10 to 50 nM | Cn1cc(C(F)(F)F)cc(NC(=O)N2CCCC23CCN(c2cnc4[nH]ncc4c2)CC3)c1=O [Example I-50, N-(1-methyl-2-oxo-5-(trifluoromethyl)-1,2-dihydropyridin-3-yl)-8-(1H-pyrazolo[3,4-b]pyridin-5-yl)-1,8-diazaspiro[4.5]decane-1-carboxamide]
< 10 nM | CN(C(=O)Nc1cc(C(F)(F)F)cn(C)c1=O)[C@H]1CCN(c2cnc3[nH]n(C)c(=O)c3c2)CC1(F)F [Example I-96-b, (S)-1-(3,3-difluoro-1-(2-methyl-3-oxo-2,3-dihydro-1H-pyrazolo[3,4-b]pyridin-5-yl)piperidin-4-yl)-1-methyl-3-(1-methyl-2-oxo-5-(trifluoromethyl)-1,2-dihydropyridin-3-yl)urea]
10 to 50 nM | Cn1cc(C(F)(F)F)cc(NC(=O)N2CCCC23CCN(c2cnc4[nH]ccc4n2)CC3)c1=O [Example I-47, N-(1-methyl-2-oxo-5-(trifluoromethyl)-1,2-dihydropyridin-3-yl)-8-(5H-pyrrolo[2,3-b]pyrazin-2-yl)-1,8-diazaspiro[4.5]decane-1-carboxamide]
< 10 nM | CC(=O)Nc1cnc(N2CCC(N(C)C(=O)Nc3cc(C)cc(C(F)(F)F)c3)CC2)cn1 [Example I-13, N-(5-(4-(1-methyl-3-(3-methyl-5-(trifluoromethyl)phenyl)ureido)piperidin-1-yl)pyrazin-2-yl)acetamide]
50 to 1000 nM | CO[C@H]1CN(c2cnc3[nH]c(C)cc3n2)CC[C@@H]1N(C)C(=O)Nc1cc(C(F)(F)F)cn(C)c1=O [Example I-117-b, 1-((3S,4S)-3-methoxy-1-(6-methyl-5H-pyrrolo[2,3-b]pyrazin-2-yl)piperidin-4-yl)-1-methyl-3-(1-methyl-2-oxo-5-(trifluoromethyl)-1,2-dihydropyridin-3-yl)urea]
50 to 1000 nM | Cn1cc(C(F)(F)F)cc(NC(=O)C2(C3CCN(c4cnccn4)CC3)CC2)c1=O [Example I-5, N-(1-methyl-2-oxo-5-(trifluoromethyl)-1,2-dihydropyridin-3-yl)-1-(1-(pyrazin-2-yl)piperidin-4-yl)cyclopropane-1-carboxamide]
< 10 nM | C[C@@H]1C[C@H](N(C)C(=O)Nc2cc(C(F)(F)F)cn(C)c2=O)CCN1c1cnc2[nH]ccc2n1 [Example I-126-b, 1-methyl-1-((2R,4R)-2-methyl-1-(5H-pyrrolo[2,3-b]pyrazin-2-yl)piperidin-4-yl)-3-(1-methyl-2-oxo-5-(trifluoromethyl)-1,2-dihydropyridin-3-yl)urea]
< 10 nM | CN(C(=O)Nc1cc(C(F)(F)F)cn(C)c1=O)[C@H]1CCN(c2cnc3[nH]nc(OC4CCOCC4)c3c2)C[C@@H]1F [Example I-114-a, 1-((3S,4S)-3-fluoro-1-(3-((tetrahydro-2H-pyran-4-yl)oxy)-1H-pyrazolo[3,4-b]pyridin-5-yl)piperidin-4-yl)-1-methyl-3-(1-methyl-2-oxo-5-(trifluoromethyl)-1,2-dihydropyridin-3-yl)urea]
< 10 nM | CC(=O)Nc1ccc(N2CCC(N(C)C(=O)Nc3cc(C(F)(F)F)cn(C)c3=O)CC2)cn1 [Example I-20, N-(5-(4-(1-methyl-3-(1-methyl-2-oxo-5-(trifluoromethyl)-1,2-dihydropyridin-3-yl)ureido)piperidin-1-yl)pyridin-2-yl)acetamide]

Compound | Kd
CN(C(=O)Nc1cc(C(F)(F)F)cn(C)c1=O)C1CCN(c2cnn3cc(O[C@@H]4CC[C@H]4O)ncc23)CC1 [Example I-129-a, 1-(1-(6-((1R,2R)-2-hydroxycyclobutoxy)pyrazolo[1,5-a]pyrazin-3-yl)piperidin-4-yl)-1-methyl-3-(1-methyl-2-oxo-5-(trifluoromethyl)-1,2-dihydropyridin-3-yl)urea] | < 10 nM
(S)-1-methyl-3-(1-methyl-2-oxo-5-(trifluoromethyl)-1,2-dihydropyridin-3-yl)-1-(3-(3-((tetrahydrofuran-3-yl)oxy)-1H-pyrazolo[3,4-b]pyridin-5-yl)bicyclo[1.1.1]pentan-1-yl)urea and (R)-1-methyl-3-(1-methyl-2-oxo-5-(trifluoromethyl)-1,2-dihydropyridin-3-yl)-1-(3-(3-((tetrahydrofuran-3-yl)oxy)-1H-pyrazolo[3,4-b]pyridin-5-yl)bicyclo[1.1.1]pentan-1-yl)urea [Example I-166-b] | ≥ 5000 nM
